Measurements: patent US20050176806A1, “Use of substituted cyanopyrrolidines and combination preparations containing them for treating hyperlipidemia and associated diseases” (priority 2002, published 2005)

Tested on: patients with a diagnosis of Type 2 diabetes mellitus
Assay: Evaluation of the Effects of Compound IC on Human Lipid Profiles
Assay type: in vivo
Settings: compound IC 100 mg or 200 mg OD for four weeks, compared to placebo
Source text: Evaluation of the Effects of Compound IC on Human Lipid Profiles Sixty (60) patients comprised of male and non-fertile female patients aged at least 30 years with a diagnosis of Type 2 diabetes mellitus of at least three months duration, who have been treated with diet alone for at least one month prior to study entry were selected. The study was broken down into two periods. Period 1 was the four weeks prior to the beginning of the study, with period 2 being four weeks and being the actual study period when patients were treated with compound IC. Accordingly, study entry was Week −4 and the endpoint was after the fourth week of Period 2. Patients were randomized in a ratio of 1:1:1 as follows: compound IC at 200 mg once a day (OD), compound IC at 100 mg OD and placebo. The patients received compound IC 30 minutes before breakfast. There were 5 test days in the study. Patients attended as outpatients for fasting blood sampling at Week −4 (study entry), Week −2 and Week 2 and as inpatients for 24 hours on Week 0 (=baseline) and Week 4 (=endpoint). On the two inpatient test days, the total caloric intake of breakfast, lunch and dinner was standardized and standard test meals were administered in place of breakfast and dinner. Triglycerides, total cholesterol and lipid fractions (LDL, VLDL and HDL) were measured during 24 hours following the breakfast standard meal. […] On the two inpatient test days, patients fasted for at least 7 hours, i.e., no food or drinks (except water) after midnight on the day before the scheduled visit, and attended the clinic at 07.00 h. On each of the two test days, the total caloric intake during 24 hours was standardized and standard test meals were administered for breakfast (about 08.00 h) and dinner (about 18.00 h). Lunch was taken at approximately 13.00 h. On Day 1, no compound IC was administered but at Week 4, patients took compound IC as normal, 30 minutes before the standard breakfast. Triglycerides, total cholesterol and lipid fractions (LDL, VLDL and HDL) were evaluated. Triglycerides, total cholesterol and HDL were measured and LDL and VLDL calculated according to the method of Friedewald et al., “Estimation of the Concentration of Low-Density Lipoprotein Cholesterol Without the Use of the Preparative Centrifuge”, Clin. Chem., Vol. 18, No. 6, pp. 499-502 (1972).

[1] = calculated according to Friedewald et al.
[2] = measured during 24 hours following breakfast standard meal

N#C[C@@H]1CCCN1C(=O)CNC12CC3CC(CC(O)(C3)C1)C2 [compound IC]
markedly lowered: levels of LDL [1] | levels of VLDL [1] | levels of total cholesterol [2] | levels of triglyceride [2]
